Source: ChEMBL document CHEMBL1201862, “PubChem BioAssay data set” (2004)
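How tested: cells in 96-well plates exposed to compound for 48 hours at five concentrations. GI50 = concentration required for 50% inhibition of growth.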 Calls of active or inactive are those of the source. Rule as the data show it: active = GI50 up to about 1.1 µM and inactive = higher.

Tests used:
Experiment in all cases: DTP human tumour cell line panel, 48 h
SNB-78 = system: SNB-78
DMS-114 = system: DMS-114
DMS-273 = system: DMS-273
HOP-18 = system: HOP-18
DLD-1 = system: DLD-1
MDA-N = system: MDA-N
PC-3 = system: PC-3
Hs-578T = system: Hs-578T

Measured: GI50

NC1=NC2=C(CCCC2)C(c2cccs2)S1 (stereo not drawn)
inactive: SNB-78 > 100 µM | DMS-114 42.8 µM | DMS-273 > 100 µM | HOP-18 33.5 µM

O=C1NC2C(CCO)CC=C[C@H]2c2cc3c(cc21)OCO3 (stereo partly drawn)
inactive: SNB-78 > 100 µM | DMS-114 > 100 µM | DLD-1 > 100 µM | DMS-273 > 100 µM

Clc1ccc(COC(Cn2ccnc2)c2ccc(Cl)cc2Cl)c(Cl)c1 (stereo not drawn) [MICONAZOLE]
inactive: MDA-N 4.8 µM | PC-3 7.08 µM | Hs-578T 13.4 µM

COC(=O)c1sc2c(=O)c(C(=O)OC)c(C(=O)OC)sc2c(=O)c1C(=O)OC
inactive: MDA-N > 100 µM | PC-3 > 100 µM | Hs-578T > 64.1 µM

CC1(C)C(O)c2ccccc2OC1N1CCN(C2Oc3ccccc3C(O)C2(C)C)CC1 (stereo not drawn)
inactive: MDA-N > 100 µM | PC-3 > 100 µM | Hs-578T > 100 µM

COc1ccc(OC)c2c1ccc1c(C)c3ccccc3c(C)c12
inactive: MDA-N 79.1 µM | PC-3 > 100 µM

O=C1NNC(=O)c2ccccc2SSc2ccccc2C(=O)NNC(=O)c2ccccc2SSc2ccccc21
inactive: MDA-N 32 µM | PC-3 19.5 µM | Hs-578T > 50 µM

Nc1nc(O)c(N)c(NCCOCP(=O)(O)O)n1
inactive: MDA-N > 100 µM | PC-3 > 100 µM | Hs-578T > 100 µM

CCOC(=O)c1sc2ncnc(N)c2c1C
inactive: MDA-N 41.8 µM | PC-3 68.5 µM | Hs-578T 44.1 µM

O=C(Cn1ccnc1[N+](=O)[O-])NCCO [ETANIDAZOLE]
inactive: PC-3 > 100 µM | Hs-578T > 100 µM

CC1(C)COC(c2ccc(C(=O)c3ccc(Cl)cc3)cc2)=N1
inactive: MDA-N > 100 µM | PC-3 > 100 µM | Hs-578T > 100 µM

Cc1cc(=O)n2c(cc3cccccc32)n1
inactive: SNB-78 > 100 µM | DMS-273 > 100 µM

Cc1nnc2c3c(-c4ccccc4)c(-c4ccccc4)oc3nc(N(C)C)n12
inactive: Hs-578T 21.3 µM

CNc1ncc(-c2nnnn2-c2ccccc2)c(CN(C)C)n1
inactive: PC-3 > 100 µM | Hs-578T > 100 µM

O=[N+]([O-])c1ccc(C(c2c[nH]c3ccccc23)c2c[nH]c3ccccc23)cc1
inactive: MDA-N 11.6 µM | PC-3 12.3 µM | Hs-578T 19 µM

CC1(C)[C@H]2CC[C@@]13C(=O)N1C(=O)O[C@@H]([C@H]1Cl)C(Cl)(COCc1ccccc1)C(=O)OCCO[C@H]3C2 (stereo partly drawn)
inactive: MDA-N 64.9 µM | PC-3 38.2 µM | Hs-578T 88.1 µM

[N-]=[N+]=Nc1ccccc1Oc1ccccc1
inactive: SNB-78 > 100 µM | DMS-114 > 100 µM | DLD-1 > 100 µM | DMS-273 > 100 µM

COc1cc2c(cc1OCCCCCOc1cc3c(cc1OC)C(=O)N1CCC[C@H]1CN3)N=C[C@@H]1CCCN1C2=O
inactive: PC-3 10.1 µM | Hs-578T 6.75 µM

N[C@@H](Cc1ccccc1)C(=O)N1CCC[C@@H]1P(=O)(Oc1ccccc1)Oc1ccccc1
inactive: MDA-N > 100 µM | PC-3 33.6 µM | Hs-578T > 100 µM

CN(Cc1ccccc1)/C(=N\C#N)N(Cc1ccccc1)Cc1ccccc1
inactive: SNB-78 26.3 µM | MDA-N 17.9 µM | DLD-1 21 µM | PC-3 14.8 µM | DMS-273 20.9 µM | Hs-578T 34.8 µM

NC1=NCCC1(c1ccccc1)c1ccccn1 (stereo not drawn)
inactive: SNB-78 > 100 µM | DMS-114 > 100 µM | DMS-273 > 100 µM | HOP-18 > 100 µM

Nc1c(-c2nc3ccccc3s2)c2ccc([N+](=O)[O-])cc2c(=O)n1-c1cccc(C(=O)O)c1
inactive: MDA-N 45.1 µM | PC-3 29.9 µM | Hs-578T 27.5 µM

Cc1cn(CC2=NCCCN2)c(=O)[nH]c1=O
inactive: MDA-N > 100 µM | PC-3 > 100 µM | Hs-578T > 100 µM

Cc1cc(NS(=O)(=O)c2ccc(NC(=O)c3cccc4c(Nc5ccc(S(=O)(=O)Nc6cc(C)on6)cc5)c5ccc(Cl)cc5nc34)cc2)no1
inactive: SNB-78 91.6 µM | DMS-114 38.9 µM | DLD-1 63.2 µM | DMS-273 85.1 µM | HOP-18 14.9 µM

c1ccc2c3nnc(c2c1)SCCCSc1nnc(c2ccccc12)SCCCS3
inactive: MDA-N > 100 µM | PC-3 97.7 µM

Cc1cc2c(cc1O)CC[C@@H]1[C@@H]2CC[C@]2(C)[C@@H](O)CC[C@@H]12
inactive: MDA-N 1.9 µM | PC-3 11.1 µM | Hs-578T 2.51 µM

CN(C)c1ccc(C(C#N)NNC(=O)Cc2ccccc2)cc1 (stereo not drawn)
inactive: SNB-78 > 100 µM | DMS-114 > 100 µM | DLD-1 > 100 µM | DMS-273 > 100 µM | HOP-18 > 100 µM

CCOC(=O)c1ccc(NC(=O)SCCC(=O)O)cc1
inactive: SNB-78 > 100 µM | DMS-114 > 100 µM | DLD-1 > 100 µM | DMS-273 > 100 µM
